Test results reported in ChEMBL document CHEMBL1201861, “Genomics of Drug Sensitity in Cancer screening data, Wellcome Trust Sanger Institute”.

Assays:
Experiment in all cases: cells
SCC-9 = assay type: functional, cell-based; conditions: Homo sapiens
Description: SANGER: Inhibition of human SCC-9 cell growth in a cell viability assay.

NCI-H596 = assay type: functional, cell-based; conditions: Homo sapiens
Description: SANGER: Inhibition of human NCI-H596 cell growth in a cell viability assay.

HC-1 = assay type: functional, cell-based, Homo sapiens; conditions: Homo sapiens, HC-1
Description: SANGER: Inhibition of human HC-1 cell growth in a cell viability assay.

M059J = assay type: functional, cell-based; conditions: Homo sapiens
Description: SANGER: Inhibition of human M059J cell growth in a cell viability assay.

MOLT-13 = assay type: functional, cell-based; conditions: Homo sapiens
Description: SANGER: Inhibition of human MOLT-13 cell growth in a cell viability assay.

EGI-1 = assay type: functional, cell-based; conditions: Homo sapiens
Description: SANGER: Inhibition of human EGI-1 cell growth in a cell viability assay.

IGR-1 = assay type: functional, cell-based; conditions: Homo sapiens
Description: SANGER: Inhibition of human IGR-1 cell growth in a cell viability assay.

J82 = assay type: functional, cell-based; conditions: Homo sapiens
Description: SANGER: Inhibition of human J82 cell growth in a cell viability assay.

KYSE-510 = assay type: functional, cell-based; conditions: Homo sapiens
Description: SANGER: Inhibition of human KYSE-510 cell growth in a cell viability assay.

MEL-HO = assay type: functional, cell-based; conditions: Homo sapiens
Description: SANGER: Inhibition of human MEL-HO cell growth in a cell viability assay.

YKG-1 = assay type: functional, cell-based; conditions: Homo sapiens
Description: SANGER: Inhibition of human YKG-1 cell growth in a cell viability assay.

CAPAN-1 = assay type: functional, cell-based; conditions: Homo sapiens
Description: SANGER: Inhibition of human CAPAN-1 cell growth in a cell viability assay.

RERF-LC-MS = assay type: functional, cell-based; conditions: Homo sapiens
Description: SANGER: Inhibition of human RERF-LC-MS cell growth in a cell viability assay.

KYSE-140 = assay type: functional, cell-based; conditions: Homo sapiens
Description: SANGER: Inhibition of human KYSE-140 cell growth in a cell viability assay.

MG-63 = assay type: functional, cell-based; conditions: Homo sapiens
Description: SANGER: Inhibition of human MG-63 cell growth in a cell viability assay.

GP5d = assay type: functional, cell-based; conditions: Homo sapiens
Description: SANGER: Inhibition of human GP5d cell growth in a cell viability assay.

NCI-H1437 = assay type: functional, cell-based; conditions: Homo sapiens
Description: SANGER: Inhibition of human NCI-H1437 cell growth in a cell viability assay.

FaDu = assay type: functional, cell-based; conditions: Homo sapiens
Description: SANGER: Inhibition of human FADU cell growth in a cell viability assay.

G-401 = assay type: functional, cell-based; conditions: Homo sapiens
Description: SANGER: Inhibition of human G-401 cell growth in a cell viability assay.

Kasumi 1 = assay type: functional, cell-based, Homo sapiens; conditions: Homo sapiens, Kasumi 1
Description: SANGER: Inhibition of human KASUMI-1 cell growth in a cell viability assay.

HCC70 = assay type: functional, cell-based; conditions: Homo sapiens
Description: SANGER: Inhibition of human HCC70 cell growth in a cell viability assay.

FTC-133 = assay type: functional, cell-based; conditions: Homo sapiens
Hs-578T = assay type: functional, cell-based; conditions: Homo sapiens
Description: SANGER: Inhibition of human Hs-578-T cell growth in a cell viability assay.

CAL-33 = assay type: functional, cell-based; conditions: Homo sapiens
Description: SANGER: Inhibition of human CAL-33 cell growth in a cell viability assay.

CAL-120 = assay type: functional, cell-based; conditions: Homo sapiens
Description: SANGER: Inhibition of human CAL-120 cell growth in a cell viability assay.

RCM-1 = assay type: functional, cell-based; conditions: Homo sapiens
Description: SANGER: Inhibition of human RCM-1 cell growth in a cell viability assay.

HCC1395 = assay type: functional, cell-based; conditions: Homo sapiens
Description: SANGER: Inhibition of human HCC1395 cell growth in a cell viability assay.

A2780 = assay type: functional, cell-based; conditions: Homo sapiens
Description: SANGER: Inhibition of human A2780 cell growth in a cell viability assay.

Ca-Ski = assay type: functional, cell-based; conditions: Homo sapiens
Description: SANGER: Inhibition of human Ca-Ski cell growth in a cell viability assay.

TYK-nu = assay type: functional, cell-based; conditions: Homo sapiens
Description: SANGER: Inhibition of human TYK-nu cell growth in a cell viability assay.

MDA-MB-361 = assay type: functional, cell-based; conditions: Homo sapiens
MC-IXC = assay type: functional, cell-based; conditions: Homo sapiens
Description: SANGER: Inhibition of human MC-IXC cell growth in a cell viability assay.

BXPC-3 = assay type: functional, cell-based; conditions: Homo sapiens
Description: SANGER: Inhibition of human BxPC-3 cell growth in a cell viability assay.

SK-OV-3 = assay type: functional, cell-based; conditions: Homo sapiens
Description: SANGER: Inhibition of human SK-OV-3 cell growth in a cell viability assay.

MDA-MB-453 = assay type: functional, cell-based; conditions: Homo sapiens
Description: SANGER: Inhibition of human MDA-MB-453 cell growth in a cell viability assay.

HO-1-N-1 = assay type: functional, cell-based; conditions: Homo sapiens
Description: SANGER: Inhibition of human HO-1-N-1 cell growth in a cell viability assay.

HPAF-II = assay type: functional, cell-based; conditions: Homo sapiens
Description: SANGER: Inhibition of human HPAF-II cell growth in a cell viability assay.

NCI-H441 = assay type: functional, cell-based; conditions: Homo sapiens
Description: SANGER: Inhibition of human NCI-H441 cell growth in a cell viability assay.

LK-2 = assay type: functional, cell-based; conditions: Homo sapiens
Description: SANGER: Inhibition of human LK-2 cell growth in a cell viability assay.

HT55 = assay type: functional, cell-based; conditions: Homo sapiens
Description: SANGER: Inhibition of human HT55 cell growth in a cell viability assay.

KYSE-150 cell line = assay type: functional, cell-based; conditions: Homo sapiens
Description: SANGER: Inhibition of human KYSE-150 cell growth in a cell viability assay.

P12-Ichikawa = assay type: functional, cell-based; conditions: Homo sapiens
RPMI-2650 = assay type: functional, cell-based; conditions: Homo sapiens
Description: SANGER: Inhibition of human RPMI-2650 cell growth in a cell viability assay.

D-336MG = assay type: functional, cell-based, Homo sapiens; conditions: Homo sapiens, D-336MG
Description: SANGER: Inhibition of human D-336MG cell growth in a cell viability assay.

DOK = assay type: functional, cell-based; conditions: Homo sapiens
Description: SANGER: Inhibition of human DOK cell growth in a cell viability assay.

NCI-H522 = assay type: functional, cell-based; conditions: Homo sapiens
Description: SANGER: Inhibition of human NCI-H522 cell growth in a cell viability assay.

## CN(NC(=O)CC(=O)NN(C)C(=S)c1ccccc1)C(=S)c1ccccc1 [ELESCLOMOL]
SCC-9
  IC50: 121 nM
NCI-H596
  IC50: 44.8 nM
HC-1
  IC50: > 200 nM
M059J
  IC50: 20.6 nM
MOLT-13
  IC50: > 200 nM
EGI-1
  IC50: 8.38 nM
IGR-1
  IC50: > 200 nM
J82
  IC50: 14.1 nM
KYSE-510
  IC50: 110 nM
MEL-HO
  IC50: > 200 nM
YKG-1
  IC50: 12.6 nM
CAPAN-1
  IC50: > 200 nM
RERF-LC-MS
  IC50: 8.58 nM
KYSE-140
  IC50: 21 nM
MG-63
  IC50: > 200 nM
GP5d
  IC50: > 200 nM
NCI-H1437
  IC50: 87.7 nM
FaDu
  IC50: 5.66 nM
G-401
  IC50: 5.43 nM
Kasumi 1
  IC50: > 200 nM
HCC70
  IC50: 53.1 nM
FTC-133
  IC50: 27 nM
Hs-578T
  IC50: 15.5 nM
CAL-33
  IC50: 22.2 nM
CAL-120
  IC50: 14 nM
RCM-1
  IC50: > 200 nM
HCC1395
  IC50: 8.47 nM
A2780
  IC50: 0.594 nM
Ca-Ski
  IC50: > 200 nM
TYK-nu
  IC50: 12.4 nM
MDA-MB-361
  IC50: 25.9 nM
MC-IXC
  IC50: 7.17 nM
BXPC-3
  IC50: > 200 nM
SK-OV-3
  IC50: 3.75 nM
MDA-MB-453
  IC50: 34.7 nM
HO-1-N-1
  IC50: 24.5 nM
HPAF-II
  IC50: 38.3 nM
NCI-H441
  IC50: > 200 nM
LK-2
  IC50: 19.7 nM
HT55
  IC50: > 200 nM
KYSE-150 cell line
  IC50: 95 nM
P12-Ichikawa
  IC50: 4.04 nM
RPMI-2650
  IC50: 34.1 nM
D-336MG
  IC50: 23.4 nM
DOK
  IC50: 17.9 nM

## O=C1NC(=O)c2c1c(-c1ccccc1Cl)cc1[nH]c3ccc(O)cc3c21
SCC-9
  IC50: > 2000 nM
NCI-H596
  IC50: > 2000 nM
M059J
  IC50: > 2000 nM
MOLT-13
  IC50: > 2000 nM
EGI-1
  IC50: > 2000 nM
IGR-1
  IC50: > 2000 nM
J82
  IC50: > 2000 nM
KYSE-510
  IC50: > 2000 nM
MEL-HO
  IC50: > 2000 nM
YKG-1
  IC50: > 2000 nM
CAPAN-1
  IC50: > 2000 nM
RERF-LC-MS
  IC50: > 2000 nM
KYSE-140
  IC50: > 2000 nM
MG-63
  IC50: > 2000 nM
GP5d
  IC50: > 2000 nM
NCI-H1437
  IC50: > 2000 nM
FaDu
  IC50: > 2000 nM
G-401
  IC50: > 2000 nM
HCC70
  IC50: > 2000 nM
FTC-133
  IC50: > 2000 nM
NCI-H522
  IC50: > 2000 nM
CAL-33
  IC50: > 2000 nM
CAL-120
  IC50: > 2000 nM
RCM-1
  IC50: > 2000 nM
HCC1395
  IC50: > 2000 nM
A2780
  IC50: > 2000 nM
Ca-Ski
  IC50: > 2000 nM
MDA-MB-361
  IC50: > 2000 nM
MC-IXC
  IC50: > 2000 nM
BXPC-3
  IC50: > 2000 nM
SK-OV-3
  IC50: > 2000 nM
MDA-MB-453
  IC50: > 2000 nM
HO-1-N-1
  IC50: 1390 nM
HPAF-II
  IC50: > 2000 nM
NCI-H441
  IC50: > 2000 nM
LK-2
  IC50: > 2000 nM
HT55
  IC50: > 2000 nM
KYSE-150 cell line
  IC50: > 2000 nM
P12-Ichikawa
  IC50: 482 nM
RPMI-2650
  IC50: > 2000 nM
D-336MG
  IC50: > 2000 nM
DOK
  IC50: 1240 nM
